Assay results published in patent publication US3995062A, “Halocyclopropyl halomethyl ethers” (priority 1975, dated 1976).

System: Mice
Assay: Standard test for evaluation of inhalation anesthetics (mice in rotating drum; AC50, LC50, anesthetic index)
Type: in vivo
Conditions: 10 minutes exposure; for Anesthetic index AI (LC50/AC50): calculated from LC50 and AC50; for AC50 (minimum concentration required to anesthetize 50% of the mice) / LC50 (minimum concentration required to kill 50% of the mice): when two figures are given, the actual parameter lies between them
Experimental: Mice were exposed to the anesthetic for a period of 10 minutes in a rotating drum. Observations were then made of the pinch reflex, the corneal reflex and the return of the righting reflex. At least four graded doses were employed to determine the minimum concentration required to anesthetize 50% of the mice used (AC50) and the minimum concentration required to kill 50% of the mice (LC50). The anesthetic index (AI) was then calculated from these minimum concentrations.

SMILES | Anesthetic index AI (LC50/AC50) | AC50 (minimum concentration required to anesthetize 50% of the mice) | LC50 (minimum concentration required to kill 50% of the mice)
FC(F)OC1(F)C(F)(F)C1(F)Cl (stereo not drawn) [Example 7, 1-chloro-2-difluoromethoxy-1,2,3,3-tetrafluorocyclopropane] | > 1 | 2-10 % volume | > 10 % volume
FC(Cl)OC1(F)C(F)(F)C1(F)Cl (stereo not drawn) [Example 8, 1-chloro-2-chlorofluoromethoxy-1,2,3,3-tetrafluorocyclopropane] | 4-5 | 2 % volume | 8-10 % volume
FC(Cl)OC1(F)C(F)(F)C1(F)Br (stereo not drawn) [Example 10, 1-bromo-2-chlorofluoromethoxy-1,2,3,3-tetrafluorocyclopropane] | ~ 2 | 2-4 % volume | 6-8 % volume
FC(F)OC1(F)C(F)(F)C1(F)Br (stereo not drawn) [Example 9, 1-bromo-2-difluoromethoxy-1,2,3,3-tetrafluorocyclopropane] | > 4 | 1 % volume | > 4 % volume
